Assay results: patent publication US20240261416A1, “SYNTHESIS OF NOVEL CEREBLON E3 LIGASE LIGANDS, COMPOUNDS FORMED THEREBY, AND PHARMACEUTICAL COMPOSITIONS CONTAINING THEM” (Wisconsin Alumni Research Foundation, priority 2023, published 2024)
Where two headings read alike, the source gives them in different places. Where a SMILES comes first, the peptide text is derived from it. The star is where a group is joined. Cbz = O=C(OCc1ccccc1)*

Tests used:
CRBN-DDB1 complex [1] = target: T1, CRBN-DDB1 complex (Homo sapiens, UniProt Q96SW2); experiment: fluorescence polarization (FP) assay, binding with the CRBN-DDB1 complex; details: single concentration of 1 μM; for binding to CRBN-DDB1 complex in FP assay (relative binding affinity): tested three times, conditions adjusted to around 84% of maximum signal for 1 μM lenalidomide
T1 sequence (Q96SW2 whole entry): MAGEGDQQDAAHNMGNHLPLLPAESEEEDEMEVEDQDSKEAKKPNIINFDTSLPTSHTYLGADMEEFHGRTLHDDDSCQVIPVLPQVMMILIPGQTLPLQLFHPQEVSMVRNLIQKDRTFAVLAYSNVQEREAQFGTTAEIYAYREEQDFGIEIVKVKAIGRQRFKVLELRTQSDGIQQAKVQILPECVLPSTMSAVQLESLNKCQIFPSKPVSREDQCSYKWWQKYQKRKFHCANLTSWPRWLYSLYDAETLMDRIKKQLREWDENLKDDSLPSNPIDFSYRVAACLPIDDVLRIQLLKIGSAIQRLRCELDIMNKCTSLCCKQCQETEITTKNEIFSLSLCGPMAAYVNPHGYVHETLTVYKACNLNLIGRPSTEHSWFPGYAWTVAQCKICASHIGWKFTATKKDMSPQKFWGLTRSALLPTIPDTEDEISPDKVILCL
T1 sequence (Q16531 2-1140 partner limits assumed): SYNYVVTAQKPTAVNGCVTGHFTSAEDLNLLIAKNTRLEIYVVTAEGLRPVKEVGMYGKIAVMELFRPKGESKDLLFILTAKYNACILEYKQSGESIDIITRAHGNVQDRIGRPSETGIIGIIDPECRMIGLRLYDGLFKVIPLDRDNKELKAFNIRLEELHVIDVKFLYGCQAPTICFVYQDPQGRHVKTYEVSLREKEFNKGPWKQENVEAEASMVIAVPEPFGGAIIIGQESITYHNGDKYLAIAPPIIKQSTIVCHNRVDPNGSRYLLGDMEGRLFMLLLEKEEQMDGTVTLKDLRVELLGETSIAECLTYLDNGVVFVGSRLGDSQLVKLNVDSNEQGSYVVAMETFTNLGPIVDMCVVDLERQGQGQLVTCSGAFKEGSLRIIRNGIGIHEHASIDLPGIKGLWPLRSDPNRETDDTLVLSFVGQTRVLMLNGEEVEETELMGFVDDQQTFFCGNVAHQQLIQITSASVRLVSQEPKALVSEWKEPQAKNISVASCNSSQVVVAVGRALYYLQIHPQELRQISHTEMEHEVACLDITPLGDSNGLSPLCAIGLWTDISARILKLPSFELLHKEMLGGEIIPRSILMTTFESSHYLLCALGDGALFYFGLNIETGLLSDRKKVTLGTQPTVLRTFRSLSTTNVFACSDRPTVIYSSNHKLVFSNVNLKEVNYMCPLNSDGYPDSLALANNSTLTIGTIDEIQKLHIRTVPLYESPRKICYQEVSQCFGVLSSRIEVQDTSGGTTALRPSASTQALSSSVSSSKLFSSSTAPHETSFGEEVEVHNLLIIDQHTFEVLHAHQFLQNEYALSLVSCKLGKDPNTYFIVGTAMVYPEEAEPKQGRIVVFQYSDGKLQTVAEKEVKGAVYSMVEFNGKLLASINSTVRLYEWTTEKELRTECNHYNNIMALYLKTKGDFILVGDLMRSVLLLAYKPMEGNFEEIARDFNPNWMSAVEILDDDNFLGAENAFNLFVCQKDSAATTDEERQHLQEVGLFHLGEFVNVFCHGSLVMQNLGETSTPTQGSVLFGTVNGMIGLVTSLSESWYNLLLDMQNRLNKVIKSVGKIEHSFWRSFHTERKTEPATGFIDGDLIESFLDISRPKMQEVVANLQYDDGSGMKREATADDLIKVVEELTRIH
Protocol: All analogs were tested at a single concentration of 1 μM three times.

[2] = stability in phosphate buffer with different pHs; type: physicochemical; details: for PB7.4, percent compound remaining: phosphate buffer pH 7.4, after 24 h, 37° C.
[3] = stability in phosphate buffer with different pHs; type: physicochemical; details: phosphate buffer pH 1.0, after 24 h
From the text: (§1) Under acidic conditions, all compounds are very stable.

[4] = stability in human liver microsomes (hLM); type: in vitro ADME; details: after 0.5 h
BRD4 in MV4; 11 cells = BRD4 in MV4; 11 cells (Homo sapiens, UniProt O60885); experiment: Western blot of BRD4 in MV4; 11 cells (time course, dose response, mechanism); type: cell-based; details: for effect of 1 h pretreatment on BRD4 degradation induced by 13: pretreated 1 h, then 13 for 3 h
From the text: We next verified the mechanism of action of degrader 13 (FIGS. 8G-8H).

[5] = stability in human plasma (hP); type: in vitro ADME; details: after 4.0 h
From the text: as §1

[6] = in-vivo in humans; cited from earlier work
[7] = in human blood; cited from earlier work
MV4; 11 cells [8] = experiment: flow cytofluorimetric apoptosis analysis; type: cell-based, human; details: 48 h
Protocol: (§2) FIGS. 9A-9D. Functional studies of the PROTACs including anti-proliferation, apoptosis, G1 phase arrest, and reduced population in S phase. (FIG. 9A) AlamarBlue™ Cell Viability. […] (FIG. 9B) MV4; 11 cells were treated by indicated dosage of 13 for 48 h followed by flow cytofluorimetric cell cycle analysis. (FIGS. 9C and 9D) MV4; 11 cells were treated by indicated dosage of 13 for 48 h followed by flow cytofluorimetric apoptosis analyses.
(§3) Flow Cytometry Cell apoptosis and cell cycle were detected by Attune Flow cytometer (Thermo Fisher). Cells were seeded in a 6-well plate and treated with the indicated concentrations of compounds for 48 h. For samples for cell apoptosis detection, cells were harvested and incubated in Annexin V-FITC and PI reagents each for 15 minutes (Annexin V-FITC apoptosis detection kit, Invitrogen). For the samples for cell cycle detection, cells were fixed in 70% cold ethanol overnight and stained with PI (500 μg/ml) for 15 minutes. Flow data were analyzed using Flowjo software.

caspase 3 cleavage = experiment: Western blot of caspase 3 and cleaved caspase 3 in MV4; 11 cells; details: at 10 nm to 10 µM concentrations
MV4; 11 cells [9] = experiment: flow cytofluorimetric cell cycle analysis; type: cell-based, human; details: 48 h
Protocol: as §2, §3

MV4; 11 cells [10] = experiment: AlamarBlue cell viability; type: cell-based, human; details: 72 h
Protocol: as §2
AlamarBlue Cell Viability Cells were seeded in a 96-well plate at a density of 5000-10000 cells in 100 μl media per well and treated with DMSO control or test compounds at indicated doses. After incubated in CO2 incubator for 72 hours, cells were treated with 10 μL AlamarBlue solution ([…])). Fluorescence was measured in a plate reader with an excitation wavelength at 530-560 nm and emission wavelength at 590 nm. The fluorescence was normalized to the DMSO-treated cells, and the IC50 was calculated using GraphPad Prism 9 software.

CRBN-DDB1 complex [11] = target: T1, CRBN-DDB1 complex; experiment: fluorescence polarization (FP) assay, binding with the CRBN-DDB1 complex
[12] = phosphate buffer pH 8.8, after 24 h

Question: For `O=C1CCN(c2cccc(O)c2)C(=O)N1` [Compound 4A, 1-(3-hydroxyphenyl)dihydropyrimidine-2,4(1H,3H)-dione], which “binding to CRBN-DDB1 complex in FP assay (relative binding affinity)” value (“binding … (relative binding affinity)” for short) (CRBN-DDB1 complex [1]) is on record?
Answer: 57%

Question: Which “PB7.4, percent compound remaining” value [2] does the source give for `CC(=O)NCCC#Cc1cccc(N2CCC(=O)NC2=O)c1C` [Compound 11, N-(4-(3-(2,4-dioxotetrahydropyrimidin-1(2H)-yl)-2-methylphenyl)but-3-yn-1-yl)acetamide] here?
Answer: >99%

Question: And the “PB8.8, percent compound remaining” value [2, 12]?
Answer: 90%

Question: What about the “PB1.0, percent compound remaining” value [3] of the same molecule?
Answer: >99%

Question: And the “hLM, percent compound remaining” value [4]?
Answer: 90%

Question: Which “binding to CRBN-DDB1 complex in FP assay, in words” value (“binding … in words” below) (CRBN-DDB1 complex [1]) does the source give for `Cc1ccc(Nc2ccccc2)cc1N1CCC(=O)NC1=O` [Compound 16B] here?
Answer: remain relatively high binding affinity

Question: With `CC(C)C[C@@H](C=O)NC(=O)[C@H](CC(C)C)NC(=O)[C@H](CC(C)C)NC(=O)OCc1ccccc1` [MG132, reference compound] (Cbz-Leu-Leu-Leu-aldehyde) as the molecule, how does the “effect of 1 h pretreatment on BRD4 degradation induced by 13” value (BRD4 in MV4; 11 cells) read?
Answer: abolished the BRD4 degradation induced by 13

Question: Which “PB7.4, percent compound remaining” value [2] does the source give for `CCNC(=O)COc1cccc(N2CCC(=O)NC2=O)c1C` [Compound 10, 2-(3-(2,4-dioxotetrahydropyrimidin-1(2H)-yl)-2-methylphenoxy)-N-ethylacetamide] here?
Answer: >99%

Question: And the “PB8.8, percent compound remaining” value [2, 12]?
Answer: 95%

Question: And the “PB1.0, percent compound remaining” value [3]?
Answer: >99%

Question: What about the “hLM, percent compound remaining” value [4] of the same molecule?
Answer: 100%

Question: For `COc1ccccc1N1CCC(=O)NC1=O` [Compound 3C, 1-(2-methoxyphenyl)dihydropyrimidine-2,4(1H,3H)-dione], which “binding … in words” value (CRBN-DDB1 complex [1]) is on record?
Answer: decreased the binding

Question: With `O=C1CCN(c2ccc(O)cc2)C(=O)N1` [Compound 5A, 1-(4-hydroxyphenyl)dihydropyrimidine-2,4(1H,3H)-dione] as the molecule, how does the “binding … in words” value (CRBN-DDB1 complex [1]) read?
Answer: did not improve the binding as much as those on the meta-positions

Question: And the “binding … (relative binding affinity)” value (CRBN-DDB1 complex [1])?
Answer: 38%

Question: For `O=C1CCN(c2ccccc2Cl)C(=O)N1` [Compound 3E, 1-(2-chlorophenyl)dihydropyrimidine-2,4(1H,3H)-dione], which “binding … (relative binding affinity)” value (CRBN-DDB1 complex [1]) is on record?
Answer: 36%

Question: With `Cc1ccc(O)cc1N1CCC(=O)NC1=O` [Compound 7A, 1-(5-hydroxy-2-methylphenyl)dihydropyrimidine-2,4(1H,3H)-dione] as the molecule, how does the “binding … (relative binding affinity)” value (CRBN-DDB1 complex [1]) read?
Answer: 81%

Question: Which results are given for `Cc1c(C#CCNC(=O)OC(C)(C)C)cccc1N1CCC(=O)NC1=O` [Compound 6F, tert-butyl (3-(3-(2,4-dioxotetrahydropyrimidin-1(2H)-yl)-2-methylphenyl)prop-2-yn-1-yl)carbamate]?
Answer: hP, percent compound remaining [5]: 97%; PB7.4, percent compound remaining [2]: >99%; PB8.8, percent compound remaining [2, 12]: 93%; PB1.0, percent compound remaining [3]: >99%; hLM, percent compound remaining [4]: 87%

Question: With `O=C1CCC(N2C(=O)c3ccccc3C2=O)C(=O)N1` (stereo not shown) [thalidomide] as the molecule, how does the racemization half-life [6] read?
Answer: ~5.0 h

Question: And the racemization half-life [7]?
Answer: ~2.0 h

Question: What does the source list for `Cc1sc2c(c1C)C(c1ccc(Cl)cc1)=N[C@@H](CC(=O)NC1CCN(C(=O)COc3cccc(N4CCC(=O)NC4=O)c3C)CC1)c1nnc(C)n1-2` [Compound 13, (S)-2-(4-(4-chlorophenyl)-2,3,9-trimethyl-6H-thieno[3,2-f][1,2,4]triazolo[4,3-a][1,4]diazepin-6-yl)-N-(1-(2-(3-(2,4-dioxotetrahydropyrimidin-1(2H)-yl)-2-methylphenoxy)acetyl)piperidin-4-yl)acetamide]?
Answer: cell apoptosis, in words (MV4; 11 cells [8]): induce cell apoptosis in a dose-dependent manner; caspase 3 cleavage, in words (caspase 3 cleavage): successful in inducing caspase 3 cleavage; cell cycle effect, in words (MV4; 11 cells [9]): induce G1 phase arrest, decrease the cell population in S phase

Question: For `O=Cc1ccc(Oc2cccc(N3CCC(=O)NC3=O)c2)cc1` [Compound 15B], which “binding … (relative binding affinity)” value (CRBN-DDB1 complex [1]) is on record?
Answer: 33%

Question: For `NS(=O)(=O)OC[C@@H]1C[C@@H](n2ccc3c(N[C@H]4CCc5ccccc54)ncnc32)C[C@@H]1O` [MLN4924, reference compound], which “effect of 1 h pretreatment on BRD4 degradation induced by 13” value (BRD4 in MV4; 11 cells) is on record?
Answer: abolished the BRD4 degradation induced by 13

Question: For `Cc1sc2c(c1C)C(c1ccc(Cl)cc1)=N[C@@H](CC(=O)NC1CCN(C(=O)COc3cccc(N4CCC(=O)N(C)C4=O)c3C)CC1)c1nnc(C)n1-2` [Compound 13NT, (S)-2-(4-(4-chlorophenyl)-2,3,9-trimethyl-6H-thieno[3,2-f][1,2,4]triazolo[4,3-a][1,4]diazepin-6-yl)-N-(1-(2-(2-methyl-3-(3-methyl-2,4-dioxotetrahydropyrimidin-1(2H)-yl)phenoxy)acetyl)piperidin-4-yl)acetamide], which “BRD4 degradation activity, in words” value (BRD4 in MV4; 11 cells; several concentrations, 24 h) is on record?
Answer: No degradation activity of BRD4 was observed

Question: Which “binding … (relative binding affinity)” value (CRBN-DDB1 complex [1]) does the source give for `CCc1ccccc1N1CCC(=O)NC1=O` [Compound 3D, 1-(2-ethylphenyl)dihydropyrimidine-2,4(1H,3H)-dione] here?
Answer: 29%

Question: Which results are given for `Cc1c(OCC(=O)N2CCCCC2)cccc1N1CCC(=O)NC1=O` [Compound 9, 1-(2-methyl-3-(2-oxo-2-(piperidin-1-yl)ethoxy)phenyl)dihydropyrimidine-2,4(1H,3H)-dione]?
Answer: anti-proliferation activity, in words (MV4; 11 cells [10]): did not show any anti-proliferation activity at up to 100 μM; PB7.4, percent compound remaining [2]: >99%; PB8.8, percent compound remaining [2, 12]: 95%; effect of 1 h pretreatment on BRD4 degradation induced by 13 (BRD4 in MV4; 11 cells): abolished the BRD4 degradation induced by 13; PB1.0, percent compound remaining [3]: >99%; hLM, percent compound remaining [4]: 85%

Question: Which “binding … (relative binding affinity)” value (CRBN-DDB1 complex [1]) does the source give for `COc1cccc(N2CCC(=O)NC2=O)c1` [Compound 4C, 1-(3-methoxyphenyl)dihydropyrimidine-2,4(1H,3H)-dione] here?
Answer: 33%

Question: With `Cc1sc2c(c1C)C(c1ccc(Cl)cc1)=N[C@@H](CC(=O)OC(C)(C)C)c1nnc(C)n1-2` [JQ1, reference compound] as the molecule, how does the “anti-proliferation activity, in words” value (MV4; 11 cells [10]) read?
Answer: weaker anti-proliferation activity than 13, but higher activity than compound 13NT

Question: Which “binding … in words” value (CRBN-DDB1 complex [1]) does the source give for `CC(C)(C)OC(=O)COc1ccc(N2CCC(=O)NC2=O)cc1` [Compound 5K, tert-butyl 2-(4-(2,4-dioxotetrahydropyrimidin-1(2H)-yl)phenoxy)acetate] here?
Answer: did not improve the binding as much as those on the meta-positions

Question: For `CC(C)(C)OC(=O)COc1cccc(N2CCC(=O)NC2=O)c1` [Compound 4K, tert-butyl 2-(3-(2,4-dioxotetrahydropyrimidin-1(2H)-yl)phenoxy)acetate], which “binding … (relative binding affinity)” value (CRBN-DDB1 complex [1]) is on record?
Answer: 44%

Question: With `Cc1ccc(Oc2ccc(C=O)cc2)cc1N1CCC(=O)NC1=O` [Compound 15A] as the molecule, how does the Kd (CRBN-DDB1 complex [11]; FP assay) read?
Answer: 170 nM

Question: What about the “binding … (relative binding affinity)” value (CRBN-DDB1 complex [1]) of the same molecule?
Answer: 70%

Question: For `Nc1cccc2c1CN(C1CCC(=O)NC1=O)C2=O` (stereo not shown) [Lenalidomide, lenalidomide, reference compound], which “hP, percent compound remaining” value [5] is on record?
Answer: 62%

Question: What about the “PB7.4, percent compound remaining” value [2] of the same molecule?
Answer: 39%

Question: And the “PB8.8, percent compound remaining” value ([2]; phosphate buffer pH 8.8, after 2 h)?
Answer: 20%

Question: What about the “PB8.8, percent compound remaining” value [2, 12] of the same molecule?
Answer: 0%

Question: What about the “PB1.0, percent compound remaining” value [3] of the same molecule?
Answer: >99%

Question: And the “hLM, percent compound remaining” value [4]?
Answer: 89%

Question: With `COC(=O)c1cccc(Nc2ccc(C)c(N3CCC(=O)NC3=O)c2)c1` [Compound 16A] as the molecule, how does the “binding … in words” value (CRBN-DDB1 complex [1]) read?
Answer: remain relatively high binding affinity

Question: With `Cc1ccccc1N1CCC(=O)NC1=O` [Compound 3B, 1-(o-tolyl)dihydropyrimidine-2,4(1H,3H)-dione] as the molecule, how does the “increase of affinity by ortho-Me relative to parent PDHU 2” value (CRBN-DDB1 complex [11]; FP assay Kd) read?
Answer: about 2.5 times

Question: What about the “binding … (relative binding affinity)” value (CRBN-DDB1 complex [1]) of the same molecule?
Answer: 35%

Question: Which “binding … in words” value (CRBN-DDB1 complex [1]) does the source give for `Cc1ccc(Oc2ccccc2)cc1N1CCC(=O)NC1=O` [Compound 15D] here?
Answer: slightly weaker than 15A

Question: With `Cc1c(Oc2ccc(C=O)cc2)cccc1N1CCC(=O)NC1=O` [Compound 15C] as the molecule, how does the “binding … (relative binding affinity)” value (CRBN-DDB1 complex [1]) read?
Answer: 21%

Question: With `O=C1CCN(c2ccccc2O)C(=O)N1` [Compound 3A, 1-(2-hydroxyphenyl)dihydropyrimidine-2,4(1H,3H)-dione] as the molecule, how does the “binding … in words” value (CRBN-DDB1 complex [1]) read?
Answer: almost completely lost the binding affinity

Question: Which “binding … (relative binding affinity)” value (CRBN-DDB1 complex [1]) does the source give for `CC(C)(C)OC(=O)NCC#Cc1cccc(N2CCC(=O)NC2=O)c1` [Compound 4F, tert-butyl (3-(3-(2,4-dioxotetrahydropyrimidin-1(2H)-yl)phenyl)prop-2-yn-1-yl)carbamate] here?
Answer: 56%
